{"source": "patent US9908854B2", "about": "“Process for synthesizing ergothioneine and related compounds” (University of Cape Town, priority 2014, dated 2018)", "key": {"[1]": {"test": "Non enzymatic cleavage of C-S bond catalysed by PLP (LC/MS)", "conditions": "50 mM substrate plus 50 mM PLP, 20 mM Tris HCl pH=7.4, 37° C., 24 h", "protocol": "FIG. 2 Non enzymatic production of ESH catalysed by PLP. TIC extracted for ESH and PLP using S-(β-amino-β-carboxyethyl)ergothioneine sulfide (15), S-(β-amino-β-carboxyethyl)ergothioneine sulfoxide (II) and S-(β-amino-β-carboxyethyl)ergothioneine sulfone (III).\nFIG. 3 Non enzymatic production of ESH graph contain; 100 μl reactions containing 20 mM Tris HCl pH=7.4, 20 mM NaCl, 50 mM of either (1) sulfide (15) plus PLP, (2) sulfoxide (II) plus PLP, (3) sulfone (III) plus PLP respectively. Reaction time: 24 h.\nThree sets of 100 μl reactions (1-3) containing 20 mM Tris HCl pH=7.4, and 50 mM of either (1) S-(β-amino-β-carboxyethyl)ergothioneine sulfide (15) and PLP (2) S-(β-amino-β-carboxyethyl)ergothioneine sulfoxide (II) and PLP or (3) S-(β-amino-βcarboxyethyl)ergothioneine sulfone (III) and PLP. The non-enzymatic reactions were incubated for 1 day at 37° C., followed by lyophilisation and subsequent reconstitution in LC buffer before analysis by LC/MS (FIGS. 2 and 3)."}, "[2]": {"tested_on": "crude M. smegmatis enzymes (ESH pathway, EgtE)", "test": "Biotransformation of substrates to ergothioneine using crude M. smegmatis enzymes preparation (LC/MS)", "type": "biochemical, Mycobacterium smegmatis", "conditions": "for concentration of ESH produced: 50 mM substrate, crude M. smegmatis cell free extract, 37° C., pH=7.4, 1 day, LCMS, control (endogenous ESH) 5.70 ng/ml", "protocol": "FIG. 1 In vitro reconstitution of ESH; 100 μl reactions containing 20 mM Tris HCl pH=7.4, 20 mM NaCl, 0.2 Mm FeSO4.7H2O, 0.5 mM mercaptoethanol, 83 μl of crude M. smeg enzymes and 50 mM of either (a) S-(β-amino-β-carboxyethyl)ergothioneine sulfide (15); (b) S-(β-amino-β-carboxyethyl)ergothioneine sulfoxide (II) and (c) control. The crude enzyme reactions were incubated for 1 day at 37° C. followed by analysis by LC/MS.\nThe enzymatic and non-enzymatic PLP mediated synthesis of ESH from the synthetic sulfoxide (II) was compared. To this end, crude M. smegmatis cell free extracts were isolated from cultures grown and harvested at the late exponential phase, characterised by high enzymatic activity.^10\nThe crude enzymatic transformation of the ESH biosynthetic pathway precursors, including sulfide and sulfoxide variants were evaluated by the concomitant production of ESH in excess of basal levels as determined by LCMS. ESH precursor metabolites (β-amino-β-carboxyethyl)ergothioneine sulfide (15) and (β-amino-β-carboxyethyl)ergothioneine sulfoxide (II) were incubated with the crude cell free extract at 37° C., pH=7.4 for 1 day, and analyzed by LCMS.\nThe control reaction containing only the crude M. smegmatis cell free extract was also treated under the same conditions as the metabolites. The concentration of ESH thus obtained was 5.70 (±0.30) ng/ml, which was equated to that of endogenous ESH. This concentration was above the limit of detection (0.78 ng/ml), thus any increase in the concentration of ESH in the experiment above 1 ng/ml is considered significant enough to be ascribed to basal levels or biotransformation of the respective substrates by the crude endogenous enzymes of the ESH pathway. […]"}, "[3]": {"tested_on": "crude cell free extracts of Neurospora Crassa", "conditions": "synthetic sulfoxide of the 1974 prior synthesis; cited from earlier work"}}, "note": "Where “and” joins values, the source holds several entries; their conditions need not be identical. Equal entries are not always repeated. Entries after “also recorded” stand apart in the source; their conditions may differ."}
{"smiles": "C[N+](C)(C)[C@@H](Cc1c[nH]c([S+]([O-])C[C@H](N)C(=O)O)n1)C(=O)O", "note": "(stereo partly shown) [II]", "values": [{"measurement": "formation of ESH (non-enzymatic, PLP)", "setting": "[1]", "result": "no ESH at all; also recorded: did not produce ESH at all"}, {"measurement": "concentration of ESH produced", "setting": "[2]", "result": 22.6, "unit": "ng/mL"}, {"measurement": "cleavage to ESH by crude cell free extracts", "setting": "[3]", "result": "extensively cleaved to ESH"}]}
{"smiles": "C[N+](C)(C)[C@@H](Cc1c[nH]c(SC[C@H](N)C(=O)O)n1)C(=O)O", "note": "[compound 15, S-(β-amino-β-carboxyethyl)ergothioneine sulfide]", "values": [{"measurement": "formation of ESH (non-enzymatic, PLP)", "setting": "[1]", "result": "96.3 ng/mL and 96.34 ng/mL"}, {"measurement": "concentration of ESH produced", "setting": "[2]", "result": 19.2, "unit": "ng/mL"}]}
{"smiles": "C[N+](C)(C)[C@@H](Cc1c[nH]c(S(=O)(=O)C[C@H](N)C(=O)O)n1)C(=O)O", "note": "[III]", "values": [{"measurement": "formation of ESH (non-enzymatic, PLP)", "setting": "[1]", "result": "did not produce ESH at all"}, {"measurement": "stability to Egt E enzyme mediated C-S cleavage", "setting": "[2]", "result": "stable"}]}
